In patent publication US9809574B2, “Isoindoline or isoquinoline compounds, a process for their preparation and pharmaceutical compositions containing them” (LES LABORATOIRES SERVIER, priority 2013, dated 2017) one finds IC50 data, which are given here for 18 compounds.

Structures can show the parent of a compound that is named as a salt.

Test [1] deals with Bcl-2 protein (histag-Bcl-2, UniProtKB P10415) (Homo sapiens (Human), UniProt P10415). The test is described as follows: Inhibition of Bcl-2 by the fluorescence polarisation technique. In kind it is binding. To be noted: fluorescence polarisation test; incubation for 2 hours; read-out: IC50 (nM) Bcl-2 FP. An excerpt:
For partial inhibitors, the percentage fluorescence polarisation inhibition for a given concentration of the test compound is indicated.
For orientation: In fluorescence polarisation assays a small probe gives low polarisation when free and higher when bound to something large.

Test [2] deals with RS4; 11 leukaemia cell line. In words: In vitro cytotoxicity, Microculture Tetrazolium Assay (MTT). In kind it is cell-based. As to conditions: Homo sapiens, 11 cells exposed for 48 hours. As to the method: The cytotoxicity studies were carried out on the RS4; 11 leukaemia cell line and on H146 small Cell Lung Carcinoma cell line. The cells are distributed onto microplates and exposed to the test compounds for 48 hours. The cell viability is then quantified by a colorimetric assay, the Microculture Tetrazolium Assay (Cancer Res., 1987, 47, 939-942).

Sequence of Bcl-2 protein (P10415 whole entry): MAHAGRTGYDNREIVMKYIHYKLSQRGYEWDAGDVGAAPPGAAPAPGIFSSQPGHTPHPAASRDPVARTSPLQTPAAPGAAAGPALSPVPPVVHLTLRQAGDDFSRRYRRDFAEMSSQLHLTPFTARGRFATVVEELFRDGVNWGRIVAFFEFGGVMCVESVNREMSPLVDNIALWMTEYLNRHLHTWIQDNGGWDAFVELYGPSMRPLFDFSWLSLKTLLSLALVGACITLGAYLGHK

Take `Cc1c(C(=O)N(C)c2ccccc2)cc(-c2cc3c(cc2C(=O)N2Cc4ccccc4C[C@H]2C)CN(C(=O)Cc2ccccc2)CC3)n1C` [Example 118, N,1,2-Trimethyl-5-{7-[(3R)-3-methyl-1,2,3,4-tetrahydroisoquinoline-2-carbonyl]-2-(2-phenylacetyl)-1,2,3,4-tetrahydroisoquinolin-6-yl}-N-phenyl-1H-pyrrole-3-carboxamide]: the IC50 amounted to 3.4 nM in test [1] and 43 nM in test [2].
For `CCC(=O)N1CCc2cc(-c3cc(C(=O)N(C)c4ccc(O)cc4)c4n3CCCC4)c(C(=O)N3Cc4ccccc4C[C@H]3C)cc2C1` [Example 34, N-(4-Hydroxyphenyl)-N-methyl-3-{7-[(3R)-3-methyl-1,2,3,4-tetrahydroisoquinoline-2-carbonyl]-2-propanoyl-1,2,3,4-tetrahydroisoquinolin-6-yl}-5,6,7,8-tetrahydroindolizine-1-carboxamide], in that order: 4.9 nM and 19 nM.
For `Cc1c(C(=O)N(C)c2ccc(O)cc2)cc(-c2cc3c(cc2C(=O)N2Cc4ccccc4C[C@H]2CN2CCOCC2)CN(C(=O)Oc2ccc(Cl)c(Cl)c2)CC3)n1C` [Example 573, 3,4-Dichlorophenyl 6-{4-[(4-hydroxyphenyl)(methyl)carbamoyl]-1,5-dimethyl-1H-pyrrol-2-yl}-7-[(3S)-3-(morpholin-4-ylmethyl)-1,2,3,4-tetrahydroisoquinoline-2-carbonyl]-1,2,3,4-tetrahydroisoquinoline-2-carboxylate], the IC50 in test [1] stood at 18 nM; in test [2], 43 nM.
For `C[C@@H]1Cc2ccccc2CN1C(=O)c1cc2c(cc1-c1cc(C(=O)N(C)c3ccc(O)cc3)c3n1CCCC3)CCN(C(=O)N1CCC(c3ccccc3)C1)C2` (stereo partly drawn) [Example 67, N-(4-Hydroxyphenyl)-N-methyl-3-{7-[(3R)-3-methyl-1,2,3,4-tetrahydroisoquinoline-2-carbonyl]-2-(3-phenylpyrrolidine-1-carbonyl)-1,2,3,4-tetrahydroisoquinolin-6-yl}-5,6,7,8-tetrahydroindolizine-1-carboxamide], in that order: 9.4 nM and 51 nM.
For `C[C@@H]1Cc2ccccc2CN1C(=O)c1cc2c(cc1-c1cc(C(=O)N(C)c3ccc(O)cc3)c3n1CCCC3)CN(C(=O)Oc1ccccc1)C2` [Example 45, Phenyl 5-{1-[(4-hydroxyphenyl)(methyl)carbamoyl]-5,6,7,8-tetrahydroindolizin-3-yl}-6-[(3R)-3-methyl-1,2,3,4-tetrahydroisoquinoline-2-carbonyl]-2,3-dihydro-1H-isoindole-2-carboxylate], in that order: 15 nM and 20 nM.
For `COc1ccc(CC(=O)N2Cc3cc(C(=O)N4Cc5ccccc5C[C@H]4C)c(-c4cc(C(=O)N(C)c5ccc(O)cc5)c(C)n4C)cc3C2)cc1` [Example 101, N-(4-Hydroxyphenyl)-5-{2-[2-(4-methoxyphenyl)acetyl]-6-[(3R)-3-methyl-1,2,3,4-tetrahydroisoquinoline-2-carbonyl]-2,3-dihydro-1H-isoindol-5-yl}-N,1,2-trimethyl-1H-pyrrole-3-carboxamide], the IC50 came out at 2.6 nM in test [1] and 31 nM in test [2].
For `Cc1c(C(=O)N(C)c2ccccc2)cc(-c2cc3c(cc2C(=O)N2Cc4ccccc4C[C@H]2CN2CCOCC2)CN(C(=O)Oc2ccc(C#N)cc2)CC3)n1C` [Example 152, 4-Cyanophenyl 6-{1,5-dimethyl-4-[methyl(phenyl)carbamoyl]-1H-pyrrol-2-yl}-7-[(3S)-3-(morpholin-4-ylmethyl)-1,2,3,4-tetrahydroisoquinoline-2-carbonyl]-1,2,3,4-tetrahydroisoquinoline-2-carboxylate], the IC50 is 6.5 nM in test [1] and 29 nM in test [2].
On to `Cc1ccc(OC(=O)N2CCc3cc(-c4cc(C(=O)N(C)c5ccc(O)cc5)c5n4CCCC5)c(C(=O)N4Cc5ccccc5C[C@H]4CN4CCOCC4)cc3C2)cc1` [Example 98, 4-Methylphenyl 6-{1-[(4-hydroxyphenyl)(methyl)carbamoyl]-5,6,7,8-tetrahydroindolizin-3-yl}-7-[(3S)-3-(morpholin-4-ylmethyl)-1,2,3,4-tetrahydroisoquinoline-2-carbonyl]-1,2,3,4-tetrahydroisoquinoline-2-carboxylate hydrochloride], for which the figures for the IC50 in test [1] and in test [2] were 3.8 nM and 1.8 nM, respectively.
For `Cc1c(C(=O)N(C)c2ccccc2)cc(-c2cc3c(cc2C(=O)N2Cc4ccccc4C[C@H]2CN2CCOCC2)CN(C(=O)Cc2ccc(C#N)cc2)CC3)n1C` [Example 151, 5-{2-[2-(4-Cyanophenyl)acetyl]-7-[(3S)-3-(morpholin-4-ylmethyl)-1,2,3,4-tetrahydroisoquinoline-2-carbonyl]-1,2,3,4-tetrahydroisoquinolin-6-yl}-N,1,2-trimethyl-N-phenyl-1H-pyrrole-3-carboxamide], in that order: 5.3 nM and 19 nM.
As for `CN(C(=O)c1cc(-c2cc3c(cc2C(=O)N2Cc4ccccc4C[C@H]2CN2CCOCC2)CN(C(=O)Oc2ccc(F)cc2)CC3)n2c1CCCC2)c1ccc(O)cc1` [Example 120, 4-Fluorophenyl 6-{1-[(4-hydroxyphenyl)(methyl)carbamoyl]-5,6,7,8-tetrahydroindolizin-3-yl}-7-[(3S)-3-(morpholin-4-ylmethyl)-1,2,3,4-tetrahydroisoquinoline-2-carbonyl]-1,2,3,4-tetrahydroisoquinoline-2-carboxylate], the IC50 was 2.5 nM in test [1] and 8.2 nM in test [2].
For the compound `Cc1c(C(=O)N(C)c2ccc(O)cc2)cc(-c2cc3c(cc2C(=O)N2Cc4ccccc4C[C@H]2CN2CCOCC2)CN(C(=O)CCc2ccccc2)CC3)n1C` [Example 130, N-(4-Hydroxyphenyl)-N,1,2-trimethyl-5-{7-[(3S)-3-(morpholin-4-ylmethyl)-1,2,3,4-tetrahydroisoquinoline-2-carbonyl]-2-(3-phenylpropanoyl)-1,2,3,4-tetrahydroisoquinolin-6-yl}-1H-pyrrole-3-carboxamide], the IC50 in test [1] is 3.1 nM; in test [2] it was 36 nM.
For `CNC(=O)N1CCc2cc(-c3cc(C(=O)N(C)c4ccc(O)cc4)c4n3CCCC4)c(C(=O)N3Cc4ccccc4C[C@H]3C)cc2C1` [Example 79, 6-{1-[(4-Hydroxyphenyl)(methyl)carbamoyl]-5,6,7,8-tetrahydroindolizin-3-yl}-N-methyl-7-[(3R)-3-methyl-1,2,3,4-tetrahydroisoquinoline-2-carbonyl]-1,2,3,4-tetrahydroisoquinoline-2-carboxamide], in that order: 5.6 nM and over 150 nM.
As to `C[C@@H]1Cc2ccccc2CN1C(=O)c1cc2c(cc1-c1cc(C(=O)N(C)c3ccc(O)cc3)c3n1CCCC3)CN(C(=O)N(C)Cc1ccccc1)C2` [Example 85, N-Benzyl-5-{1-[(4-hydroxyphenyl)(methyl)carbamoyl]-5,6,7,8-tetrahydroindolizin-3-yl}-N-methyl-6-[(3R)-3-methyl-1,2,3,4-tetrahydroisoquinoline-2-carbonyl]-2,3-dihydro-1H-isoindole-2-carboxamide], the IC50 in test [1] is 6.1 nM; in test [2] it was 58 nM.
For `Cc1c(C(=O)N(C)c2ccc(O)cc2)cc(-c2cc3c(cc2C(=O)N2Cc4ccccc4C[C@H]2CN2CCN(C)CC2)CN(C(=O)C(F)(F)F)CC3)n1C` [Example 783, N-(4-Hydroxyphenyl)-N,1,2-trimethyl-5-{7-[(3S)-3-[(4-methylpiperazin-1-yl)methyl]-1,2,3,4-tetrahydroisoquinoline-2-carbonyl]-2-(trifluoroacetyl)-1,2,3,4-tetrahydroisoquinolin-6-yl}-1H-pyrrole-3-carboxamide], in that order: 23 nM and over 150 nM.
With `Cc1c(C(=O)N(C)c2ccc(O)cc2)cc(-c2cc3c(cc2C(=O)N2Cc4ccccc4C[C@H]2CN(C)C)CN(C(=O)Oc2ccccc2)CC3)n1C` [Example 211, Phenyl 7-[(3S)-3-[(dimethylamino)methyl]-1,2,3,4-tetrahydroisoquinoline-2-carbonyl]-6-{4-[(4-hydroxyphenyl)(methyl)carbamoyl]-1,5-dimethyl-1H-pyrrol-2-yl}-1,2,3,4-tetrahydroisoquinoline-2-carboxylate], the IC50 came out at 3.4 nM in test [1] and 6.9 nM in test [2].
For `CN(C(=O)c1cc(-c2cc3c(cc2C(=O)N2Cc4ccccc4C[C@H]2CN2CCOCC2)CN(S(=O)(=O)c2ccccc2)CC3)n2c1CCCC2)c1ccc(O)cc1` [Example 3, 3-[2-(Benzenesulfonyl)-7-[(3S)-3-(morpholin-4-ylmethyl)-1,2,3,4-tetrahydroisoquinoline-2-carbonyl]-1,2,3,4-tetrahydroisoquinolin-6-yl]-N-(4-hydroxyphenyl)-N-methyl-5,6,7,8-tetrahydroindolizine-1-carboxamide], in that order: 18 nM and 236 nM.
For `CCC(=O)N1Cc2cc(C(=O)N3Cc4ccccc4C[C@H]3CN3CCOCC3)c(-c3cc(C(=O)N(C)c4ccc(O)cc4)c4n3CCCC4)cc2C1` [Example 11, N-(4-Hydroxyphenyl)-N-methyl-3-{6-[(3S)-3-(morpholin-4-ylmethyl)-1,2,3,4-tetrahydroisoquinoline-2-carbonyl]-2-propanoyl-2,3-dihydro-1H-isoindol-5-yl}-5,6,7,8-tetrahydroindolizine-1-carboxamide hydrochloride], in that order: 22 nM and 763 nM.
On to `C[C@@H]1Cc2ccccc2CN1C(=O)c1cc2c(cc1-c1cc(C(=O)N(C)c3ccc(O)cc3)c3n1CCCC3)CN(C(=O)Nc1ccc(N3CCN(C)CC3)cc1)C2` [Example 65, 5-{1-[(4-Hydroxyphenyl)(methyl)carbamoyl]-5,6,7,8-tetrahydroindolizin-3-yl}-6-[(3R)-3-methyl-1,2,3,4-tetrahydroisoquinoline-2-carbonyl]-N-[4-(4-methylpiperazin-1-yl)phenyl]-2,3-dihydro-1H-isoindole-2-carboxamide], for which the IC50 in test [1] amounted to 6.5 nM; in test [2], 51 nM.

By IC50 is commonly meant the concentration that inhibits the measured activity by half.
